The supplement of paper PMC10307832

Key:
Test in all cases: relative viability (nuclei count vs DMSO), 5 days (fraction); higher = more cells survive
[1] = tested on: 201T
Procedure, shortened: (§1)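 Lung cancer cell lines in 1536-well plates got either a single drug or a fixed anchor-drug dose together with five library-drug doses (not always all listed) in √10 steps, by pin tool, on the day after seeding. Nuclei were counted after 5 days, and relative viability is the treated-to-vehicle ratio of nuclei counts. Values are medians of duplicate plates.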

[2] = tested on: BEN
Procedure, shortened: as §1

[3] = tested on: EMC-BAC-2
Procedure, shortened: as §1

[4] = tested on: HARA
Procedure, shortened: as §1

[5] = tested on: HCC-44
Procedure, shortened: as §1

[6] = tested on: LCLC-103H
Procedure, shortened: as §1

[7] = tested on: LOU-NH91
Procedure, shortened: as §1

[8] = tested on: NCI-H1993
Procedure, shortened: as §1

[9] = tested on: NCI-H2023
Procedure, shortened: as §1

[10] = tested on: NCI-H2087
Procedure, shortened: as §1

[11] = tested on: NCI-H2126
Procedure, shortened: as §1

[12] = tested on: NCI-H2347
Procedure, shortened: as §1

[13] = tested on: NCI-H23
Procedure, shortened: as §1

[14] = tested on: NCI-H3122
Procedure, shortened: as §1

[15] = tested on: NCI-H441
Procedure, shortened: as §1

[16] = tested on: NCI-H596
Procedure, shortened: as §1

[17] = tested on: NCI-H647
Procedure, shortened: as §1

[18] = tested on: NCI-H650
Procedure, shortened: as §1

[19] = tested on: NCI-H727
Procedure, shortened: as §1

[20] = tested on: NCI-H838
Procedure, shortened: as §1

`Nc1ccn([C@@H]2O[C@H](CO)[C@@H](O)[C@@H]2O)c(=O)n1` [Cytarabine] + C[C@@H](Oc1cc(-c2cnn(C3CCNCC3)c2)cnc1N)c1c(Cl)ccc(F)c1Cl [Crizotinib] (partner 1 µM) gave a relative viability ([1]; first compound 0.005 µM) of 1.04, a relative viability ([1]; first compound 0.01581 µM) of 0.999 and a relative viability ([1]; first compound 0.05 µM) of 1.01. For the same compound, the relative viability ([1]; first compound 0.1581 µM) was 0.97, the relative viability ([1]; first compound 0.5 µM) was 1 and the relative viability ([2]; first compound 0.005 µM) was 0.605. For the same compound, the relative viability ([2]; first compound 0.01581 µM) was 0.66, the relative viability ([2]; first compound 0.05 µM) was 0.449 and the relative viability ([2]; first compound 0.1581 µM) was 0.311. For the same compound, the relative viability ([2]; first compound 0.5 µM) was 0.292, the relative viability ([3]; first compound 0.005 µM) was 0.592 and the relative viability ([3]; first compound 0.01581 µM) was 0.574. The relative viability ([3]; first compound 0.05 µM) was 0.472, the relative viability ([3]; first compound 0.1581 µM) was 0.242 and the relative viability ([3]; first compound 0.5 µM) was 0.185. The relative viability ([4]; first compound 0.005 µM) was 1.01, the relative viability ([4]; first compound 0.01581 µM) was 0.682 and the relative viability ([4]; first compound 0.05 µM) was 0.333. For the same compound, the relative viability ([4]; first compound 0.1581 µM) was 0.223, the relative viability ([4]; first compound 0.5 µM) was 0.169 and the relative viability ([5]; first compound 0.005 µM) was 0.776. For the same compound, the relative viability ([5]; first compound 0.01581 µM) was 0.831, the relative viability ([5]; first compound 0.05 µM) was 0.626 and the relative viability ([5]; first compound 0.1581 µM) was 0.383. The relative viability ([5]; first compound 0.5 µM) was 0.378, the relative viability ([6]; first compound 0.005 µM) was 0.942 and the relative viability ([6]; first compound 0.01581 µM) was 1.03. It also gave a relative viability ([6]; first compound 0.05 µM) of 1.07, a relative viability ([6]; first compound 0.1581 µM) of 1.03 and a relative viability ([6]; first compound 0.5 µM) of 0.977. It also gave a relative viability ([7]; first compound 0.005 µM) of 0.753, a relative viability ([7]; first compound 0.01581 µM) of 0.714 and a relative viability ([7]; first compound 0.05 µM) of 0.637. For the same compound, the relative viability ([7]; first compound 0.1581 µM) was 0.511, the relative viability ([7]; first compound 0.5 µM) was 0.56 and the relative viability ([8]; first compound 0.005 µM) was 0.92. For the same compound, the relative viability ([8]; first compound 0.01581 µM) was 0.785, the relative viability ([8]; first compound 0.05 µM) was 0.845 and the relative viability ([8]; first compound 0.1581 µM) was 0.614. For the same compound, the relative viability ([8]; first compound 0.5 µM) was 0.566, the relative viability ([9]; first compound 0.005 µM) was 0.366 and the relative viability ([9]; first compound 0.01581 µM) was 0.368. It also gave a relative viability ([9]; first compound 0.05 µM) of 0.113, a relative viability ([9]; first compound 0.1581 µM) of 0.101 and a relative viability ([9]; first compound 0.5 µM) of 0.0749. It also gave a relative viability ([10]; first compound 0.005 µM) of 0.702, a relative viability ([10]; first compound 0.01581 µM) of 0.886 and a relative viability ([10]; first compound 0.05 µM) of 0.69. The relative viability ([10]; first compound 0.1581 µM) was 0.731, the relative viability ([10]; first compound 0.5 µM) was 0.537 and the relative viability ([11]; first compound 0.005 µM) was 0.916. It also gave a relative viability ([11]; first compound 0.01581 µM) of 1.01, a relative viability ([11]; first compound 0.05 µM) of 0.96 and a relative viability ([11]; first compound 0.1581 µM) of 0.78. The relative viability ([11]; first compound 0.5 µM) was 0.656, the relative viability ([12]; first compound 0.005 µM) was 0.827 and the relative viability ([12]; first compound 0.01581 µM) was 0.719. For the same compound, the relative viability ([12]; first compound 0.05 µM) was 0.573, the relative viability ([12]; first compound 0.1581 µM) was 0.642 and the relative viability ([12]; first compound 0.5 µM) was 0.467. For the same compound, the relative viability ([13]; first compound 0.005 µM) was 0.458, the relative viability ([13]; first compound 0.01581 µM) was 0.369 and the relative viability ([13]; first compound 0.05 µM) was 0.311. It also gave a relative viability ([13]; first compound 0.1581 µM) of 0.226, a relative viability ([13]; first compound 0.5 µM) of 0.209 and a relative viability ([14]; first compound 0.005 µM) of 0.264. It also gave a relative viability ([14]; first compound 0.01581 µM) of 0.239, a relative viability ([14]; first compound 0.05 µM) of 0.244 and a relative viability ([14]; first compound 0.1581 µM) of 0.192. It also gave a relative viability ([14]; first compound 0.5 µM) of 0.204, a relative viability ([15]; first compound 0.005 µM) of 0.776 and a relative viability ([15]; first compound 0.01581 µM) of 0.824. For the same compound, the relative viability ([15]; first compound 0.05 µM) was 0.598, the relative viability ([15]; first compound 0.1581 µM) was 0.199 and the relative viability ([15]; first compound 0.5 µM) was 0.165. The relative viability ([16]; first compound 0.005 µM) was 0.889, the relative viability ([16]; first compound 0.01581 µM) was 0.961 and the relative viability ([16]; first compound 0.05 µM) was 0.786. It also gave a relative viability ([16]; first compound 0.1581 µM) of 0.614, a relative viability ([16]; first compound 0.5 µM) of 0.743 and a relative viability ([17]; first compound 0.005 µM) of 0.613. It also gave a relative viability ([17]; first compound 0.01581 µM) of 0.518, a relative viability ([17]; first compound 0.05 µM) of 0.243 and a relative viability ([17]; first compound 0.1581 µM) of 0.11. It also gave a relative viability ([17]; first compound 0.5 µM) of 0.116, a relative viability ([18]; first compound 0.005 µM) of 0.664 and a relative viability ([18]; first compound 0.01581 µM) of 0.519. For the same compound, the relative viability ([18]; first compound 0.05 µM) was 0.353, the relative viability ([18]; first compound 0.1581 µM) was 0.259 and the relative viability ([18]; first compound 0.5 µM) was 0.177. For the same compound, the relative viability ([19]; first compound 0.005 µM) was 0.724, the relative viability ([19]; first compound 0.01581 µM) was 0.579 and the relative viability ([19]; first compound 0.05 µM) was 0.636. For the same compound, the relative viability ([19]; first compound 0.1581 µM) was 0.359, the relative viability ([19]; first compound 0.5 µM) was 0.3 and the relative viability ([20]; first compound 0.005 µM) was 0.715. It also gave a relative viability ([20]; first compound 0.01581 µM) of 0.877, a relative viability ([20]; first compound 0.05 µM) of 0.699 and a relative viability ([20]; first compound 0.1581 µM) of 0.339. For the same compound, the relative viability ([20]; first compound 0.5 µM) was 0.224.
